Test results as given in patent US8592395B2, “Therapeutic compounds” (GlaxoSmithKline LLC, priority 2009, dated 2013).
pIC50: −log10 of the molar value.

Test system: HIV
Assay: HOS assay (HOS-Luc HIV-1 LTR-luciferase reporter antiviral assay)
Assay type: cell-based
Conditions: Human immunodeficiency virus 1, 96 h; HOS-Luc cells (HOS-CD4.CCR5 with HIV-1 LTR-luciferase reporter), four-day incubation with virus, luciferase readout
Procedure: HOS-Luc cells were created by introducing an HIV-1 LTR-luciferase reporter into HOS-CD4.CCR5 (NIH AIDS Research and Reference Reagents Program, cat. #3318). The cells were propagated in DMEM complete medium. Cells were split 1:20 by standard trypsinization when confluency reached 80% (roughly every 2 to 3 days).
Black-walled 96-well tissue culture plates were seeded with HOS-Luc at 6×10^3 cells per well in 50 μL DMEM containing 2% FBS and placed in a humidified incubator at 37° C., 5% CO2 overnight. The following day, test compounds were serially diluted in 4-fold increments at 2× the final concentration in DMEM+2% FBS+0.2% DMSO. Diluted compound (50 μL) was transferred to the HOS-Luc cells and the plates were placed in a humidified incubator at 37° C., 5% CO2 for 1 hr. An additional 60 μL of 2× compound was transferred to a clear-walled 96-well tissue culture plate and 60 μL of virus (diluted 1:50 in tissue culture media) was added to each well and thoroughly mixed. The virus input was previously determined by titrating the virus under assay conditions without compound and selecting a dilution that gives a response in the linear range of the curve and a signal to background of at least 30. The HIV/compound mixture (100 μL) was transferred to the black-walled plates containing 100 μL of cells/compound. The plates were placed in a humidified incubator at 37° C., 5% CO2 for four days. Following the four-day incubation, 150 μL of supernatant was removed and 50 μL of reconstituted Luclite (Promega) was added to each well. For cytotoxicity assessment, 50 μL of reconstituted CellTiter-GLo (Promega) was added to each well. Each plate was topsealed and read in a Topcount (Packard) luminometer at 1 s/well.
Raw data from the HOS-Luc assay were expressed as Relative Light Units (RLU) and normalized according to the following formula: (RLU at drug [ ]/RLU no drug)*100=% control
The potency of test compounds are reported as IC50 values derived from the four parameter Hill equation, defined as: y=Vmax*(1−(x^n/(K^n+x^n)))+Y2 Where:
y=normalized response data
Vmax=upper bound of response
Y2=lower bound or baseline of response

SMILES	pIC50
Cc1nc2ccccc2n1[C@H]1C[C@H]2CC[C@@H](C1)N2CCC(CNS(=O)(=O)c1ccccc1)c1ccccc1 (stereo partly drawn) [Example 1, N-{4-[(1R,5S)-3-(2-methyl-1H-benzimidazol-1-yl)-8-azabicyclo[3.2.1]oct-8-yl]-2-phenylbutyl}]	7.00 to 8.00
Cc1nc2ccccc2n1[C@H]1C[C@H]2CC[C@@H](C1)N2CCC(CN(C)S(=O)(=O)c1ccccc1)c1ccccc1 (stereo partly drawn) [Example 2, N-methyl-N-{4-[(1R,5S)-3-(2-methyl-1H-benzimidazol-1-yl)-8-azabicyclo[3.2.1]oct-8-yl]-2-phenylbutyl}benzenesulfonamide]	> 8.00
Cc1nc2ccccc2n1[C@H]1C[C@H]2CC[C@@H](C1)N2CCC(CNS(=O)(=O)c1cccc(C#N)c1)c1ccccc1 (stereo partly drawn) [Example 3, 3-cyano-N-{4-[(1R,5S)-3-(2-methyl-1H-benzimidazol-1-yl)-8-azabicyclo[3.2.1]oct-8-yl]-2-phenylbutyl}benzenesulfonamide]	7.00 to 8.00
Cc1nc2ccccc2n1[C@H]1C[C@H]2CC[C@@H](C1)N2CCC(CNS(=O)(=O)c1ccc(C#N)cc1)c1ccccc1 (stereo partly drawn) [Example 4, 4-cyano-N-{4-[(1R,5S)-3-(2-methyl-1H-benzimidazol-1-yl)-8-azabicyclo[3.2.1]oct-8-yl]-2-phenylbutyl}benzenesulfonamide]	7.00 to 8.00
Cc1nc2ccccc2n1[C@H]1C[C@H]2CC[C@@H](C1)N2CCC(CNS(C)(=O)=O)c1ccccc1 (stereo partly drawn) [Example 5, N-{4-[(1R,5S)-3-(2-methyl-1H-benzimidazol-1-yl)-8-azabicyclo[3.2.1]oct-8-yl]-2-phenylbutyl}methanesulfonamide]	7.00 to 8.00
Cc1nc2ccccc2n1[C@H]1C[C@H]2CC[C@@H](C1)N2CCC(CNS(=O)(=O)c1cccc(C(N)=O)c1)c1ccccc1 (stereo partly drawn) [Example 6, 3-[({4-[(1R,5S)-3-(2-methyl-1H-benzimidazol-1-yl)-8-azabicyclo[3.2.1]oct-8-yl]-2-phenylbutyl}amino)sulfonyl]benzamide]	7.00 to 8.00
Cc1nc2ccccc2n1[C@H]1C[C@H]2CC[C@@H](C1)N2CCC(CNS(=O)(=O)c1ccc2[nH]c(=O)oc2c1)c1ccccc1 (stereo partly drawn) [Example 7]	7.00 to 8.00
Cc1nc2ccccc2n1C1C[C@H]2CC[C@@H](C1)N2CCC(CNS(=O)(=O)c1ccc(C(N)=O)cc1)c1ccccc1 (stereo partly drawn) [Example 8, 4-[({4-[(1R,5S)-3-(2-methyl-1H-benzimidazol-1-yl)-8-azabicyclo[3.2.1]oct-8-yl]-2-phenylbutyl}amino)sulfonyl]benzamide]	7.00 to 8.00
COP(=O)(NCC(CCN1[C@@H]2CC[C@H]1C[C@@H](n1c(C)nc3ccccc31)C2)c1ccccc1)OC (stereo partly drawn) [Example 9, dimethyl{4-[(1R,5S)-3-(2-methyl-1H-benzimidazol-1-yl)-8-azabicyclo[3.2.1]oct-8-yl]-2-phenylbutyl}amidophosphate]	7.00 to 8.00
Cc1nc2ccccc2n1[C@H]1C[C@H]2CC[C@@H](C1)N2CCC(CNS(=O)(=O)CC(F)(F)F)c1ccccc1 (stereo partly drawn) [Example 10, 2,2,2-trifluoro-N-{4-[(1R,5S)-3-(2-methyl-1H-benzimidazol-1-yl)-8-azabicyclo[3.2.1]oct-8-yl]-2-phenylbutyl}ethanesulfonamide]	7.00 to 8.00
Cc1nc2ccncc2n1[C@H]1C[C@H]2CC[C@@H](C1)N2CCC(CNS(=O)(=O)c1ccccc1)c1ccccc1 (stereo partly drawn) [Example 11, N-{4-[(1R,5S)-3-(2-methyl-3H-imidazo[4,5-c]pyridin-3-yl)-8-azabicyclo[3.2.1]oct-8-yl]-2-phenylbutyl}benzenesulfonamide]	7.00 to 8.00
Cc1nc2ccccc2n1[C@H]1C[C@H]2CC[C@@H](C1)N2CCC(CNS(=O)(=O)N1CCOCC1)c1ccccc1 (stereo partly drawn) [Example 12, N-{4-[(1R,5S)-3-(2-methyl-1H-benzimidazol-1-yl)-8-azabicyclo[3.2.1]oct-8-yl]-2-phenylbutyl}-4-mopholinesulfonamide]	7.00 to 8.00
CC(=O)N1CCc2nc(C)n([C@H]3C[C@H]4CC[C@@H](C3)N4CCC(CNS(=O)(=O)c3ccccc3)c3ccccc3)c2C1 (stereo partly drawn) [Example 13, N-{4-[(1R,5S)-3-(5-acetyl-2-methyl-4,5,6,7-tetrahydro-3H-imidazo[4,5-c]pyridin-3-yl)-8-azabicyclo[3.2.1]oct-8-yl]-2-phenylbutyl}benzenesulfonamide]	> 8.00
Cc1nc2ccccc2n1[C@H]1C[C@H]2CC[C@@H](C1)N2CCC(CNS(=O)(=O)NC1CCC1)c1ccccc1 (stereo partly drawn) [Example 14, N-cyclobutyl-N′-{4-[(1R,5S)-3-(2-methyl-1H-benzimidazol-1-yl)-8-azabicyclo[3.2.1]oct-8-yl]-2-phenylbutyl}sulfamide]	7.00 to 8.00
Cc1nc2ccccc2n1[C@H]1C[C@H]2CC[C@@H](C1)N2CCC(CNS(=O)(=O)NC1CCC(F)(F)CC1)c1ccccc1 (stereo partly drawn) [Example 15, N-(4,4-difluorocyclohexyl)-N′-{4-[(1R,5S)-3-(2-methyl-1H-benzimidazol-1-yl)-8-azabicyclo[3.2.1]oct-8-yl]-2-phenylbutyl}sulfamide]	7.00 to 8.00
Cc1nnc(C(C)C)n1[C@H]1C[C@H]2CC[C@@H](C1)N2CCC(CNC(=O)C1CCC(F)(F)CC1)c1ccccc1 (stereo partly drawn) [Example 16, 4,4-difluoro-N-(4-{(1R,5S)-3-[3-methyl-5-(1-methylethyl)-4H-1,2,4-triazol-4-yl]-8-azabicyclo[3.2.1]oct-8-yl}-2-phenylbutyl)cyclohexanecarboxamide]	6.00 to 7.00
Cc1nnc(C(C)C)n1[C@H]1C[C@H]2CC[C@@H](C1)N2CCC(CNS(=O)(=O)c1ccccc1)c1ccccc1 (stereo partly drawn) [Example 17, N-(4-{(1R,5S)-3-[3-methyl-5-(1-methylethyl)-4H-1,2,4-triazol-4-yl]-8-azabicyclo[3.2.1]oct-8-yl}-2-phenylbutyl)benzenesulfonamide]	6.00 to 7.00
Cc1nnc(C(C)C)n1[C@H]1C[C@H]2CC[C@@H](C1)N2CCC(CNC(=O)C1CC(F)(F)C1)c1ccccc1 (stereo partly drawn) [Example 18, 3,3-difluoro-N-(4-{(1R,5S)-3-[3-methyl-5-(1-methylethyl)-4H-1,2,4-triazol-4-yl]-8-azabicyclo[3.2.1]oct-8-yl}-2-phenylbutyl)cyclobutanecarboxamide]	6.00 to 7.00
Cc1nc2ccccc2n1[C@H]1C[C@H]2CC[C@@H](C1)N2CCC(C)(CNS(=O)(=O)c1ccccc1)c1ccccc1 (stereo partly drawn) [Example 19, N-{2-methyl-4-[(1R,5S)-3-(2-methyl-1H-benzimidazol-1-yl)-8-azabicyclo[3.2.1]oct-8-yl]-2-phenylbutyl}benzenesulfonamide]	6.00 to 7.00
Cc1nc2ccccc2n1[C@H]1C[C@H]2CC[C@@H](C1)N2CCC(C)(CN(C)S(=O)(=O)c1ccccc1)c1ccccc1 (stereo partly drawn) [Example 20, N-methyl-N-{2-methyl-4-[(1R,5S)-3-(2-methyl-1H-benzimidazol-1-yl)-8-azabicyclo[3.2.1]oct-8-yl]-2-phenylbutyl}benzenesulfonamide]	> 8.00
Cc1nc2ccccc2n1[C@H]1C[C@H]2CC[C@@H](C1)N2CCC(C)(CNC(=O)C1CCC(F)(F)CC1)c1ccccc1 (stereo partly drawn) [Example 21, 4,4-difluoro-N-{2-methyl-4-[(1R,5S)-3-(2-methyl-1H-benzimidazol-1-yl)-8-azabicyclo[3.2.1]oct-8-yl]-2-phenylbutyl}cyclohexanecarboxamide]	6.00 to 7.00
Cc1nc2ccccc2n1[C@H]1C[C@H]2CC[C@@H](C1)N2CCC(C)(CN(C)C(=O)C1CCC(F)(F)CC1)c1ccccc1 (stereo partly drawn) [Example 22, 4,4-difluoro-N-methyl-N-{2-methyl-4-[(1R,5S)-3-(2-methyl-1H-benzimidazol-1-yl)-8-azabicyclo[3.2.1]oct-8-yl]-2-phenylbutyl}cyclohexanecarboxamide]	6.00 to 7.00
Cc1nnc(C(C)C)n1[C@@H]1C[C@H]2CC[C@@H](C1)N2CCC(C)(CNC(=O)C1CCC(F)(F)CC1)c1ccccc1 (stereo partly drawn) [Example 23, 4,4-difluoro-N-(2-methyl-4-{(1R,5S)-3-[3-methyl-5-(1-methylethyl)-4H-1,2,4-triazol-4-yl]-8-azabicyclo[3.2.1]oct-8-yl}-2-phenylbutyl)cyclohexanecarboxamide]	6.00 to 7.00
Cc1nnc(C(C)C)n1[C@@H]1C[C@H]2CC[C@@H](C1)N2CCC(C)(CNS(=O)(=O)c1ccccc1)c1ccccc1 (stereo partly drawn) [Example 24, N-(2-methyl-4-{(1R,5S)-3-[3-methyl-5-(1-methylethyl)-4H-1,2,4-triazol-4-yl]-8-azabicyclo[3.2.1]oct-8-yl}-2-phenylbutyl)benzenesulfonamide]	6.00 to 7.00
